Results taken from PMC5845165, “Pharmacokinetic Study of 7 Compounds Following Oral Administration of Fructus Aurantii to Depressive Rats” (Frontiers in Pharmacology, 2018).

Test system: rats undergoing the forced swimming test (FST)
Experiment: Forced swimming test (FST), immobility time after acute oral treatment
Format: in vivo, Sprague–Dawley rats
Conditions: Fluoxetine 20 mg/kg, single oral dose 0.5 h before test (Figure 1A); p < 0.05 vs vehicle
Procedure: ZQ lyophilized powder or fluoxetine (Eli Lilly, United States) was dissolved with saline. To evaluate dose-dependent effects, ZQ (5, 10, 20 g/kg) or fluoxetine (20 mg/kg) was orally administered as a single dosage 0.5 h before the test. To study the precise relationship between antidepressant effects and pharmacokinetics, ZQ (20 g/kg) was orally administered as a single dose 0.5, 1, 2, or 4 h before the test. Similarly, vehicle rats were orally administered an equal volume of saline using the identical procedure.
The swimming tests were conducted according to a previously described method ([Flores-Burgess et al., 2017]) with minor modifications. In brief, all experiments were operated between 12:00 h and 15:00 h in the light cycle. Each rat was individually put into a vertical glass cylinder with a diameter of 20 cm, water depth of 30 cm and water temperature of 25°C. A 15-min forced swimming test was conducted 24 h before the 5-min test. Each rat was deemed to be immobile when it stopped scrabbling, remained floating stilly in the water and only made necessary struggling to maintain its head over water. The total duration of immobility was recorded during the 5-min test.

CNCCC(Oc1ccc(C(F)(F)F)cc1)c1ccccc1 (stereo not shown) [Fluoxetine, fluoxetine]
immobility time in the FST: 116.07 ± 28.65 s
